The record followed here is article PMC10296061, “Inhibition of the Mitochondrial Carnitine/Acylcarnitine Carrier by Itaconate through Irreversible Binding to Cysteine 136: Possible Pathophysiological Implications” (Biomolecules, 2023).

Structures are written as SMILES. Substitutions are numbered along the chain they refer to. Read-outs that look alike come from different tables or passages of the source.

In one experiment the target is T1, CAC C136A mutant (Rattus norvegicus, UniProt P97521, C136A).
T1 construct: made in house; host or cells: E. coli C0214
T1 sequence (P97521 1-301 C136A): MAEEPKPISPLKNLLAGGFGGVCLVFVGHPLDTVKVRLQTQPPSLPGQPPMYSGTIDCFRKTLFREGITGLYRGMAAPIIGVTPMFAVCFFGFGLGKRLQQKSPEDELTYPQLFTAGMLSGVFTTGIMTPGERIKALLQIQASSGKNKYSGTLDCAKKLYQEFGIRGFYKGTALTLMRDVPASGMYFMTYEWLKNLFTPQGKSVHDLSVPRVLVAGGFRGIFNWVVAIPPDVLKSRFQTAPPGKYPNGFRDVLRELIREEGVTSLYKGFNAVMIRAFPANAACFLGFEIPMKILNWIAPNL
The experiment in a line: Transport assay in proteoliposomes, CAC mutant C136A. It is filed as biochemical. As to conditions: mutant lacking C136; read-out: IC50 for itaconate inhibition. The method, then: As previously described, the pMW7-WTratCAC recombinant plasmid was used for over-expressing the rat CAC [22]. The overlap extension method was used to introduce the mutations; in the main time, NdeI and HindIII restriction sites were also added using appropriate primers. The PCR products were purified by the QIAEX II Gel Extraction Kit (QIAGEN) and digested with NdeI and HindIII and then ligated into the pMW7. All mutations were verified by DNA sequencing. The resulting plasmid constructs were transformed into E. coli C0214. Overexpression, inclusion body fraction preparation, and purification of the CAC proteins were performed as previously described. […]
To test the transport activity of the CAC, 550 μL of proteoliposomes was passed through a Sephadex G-75 column to remove the external substrate. […] Transport rates were measured in 10 min, i.e., within the initial linear range of the time course, at 25 °C. After terminating the transport reaction, the external substrate was removed by chromatography on the Sephadex G-75 column, and the intraliposomal radioactivity was measured. […]
Figure 3 Identification of residue responsible for itaconate inhibition. […] Transport activity of the WT (○), C136A (●), C155A (Δ), C23V/C58V/C89S/C155V/C283S (▲), and C23V/C58V/C89S/C136V/C155V/C283S (□) was measured by adding 0.1 mM [^3H]carnitine after treatment by itaconate at the indicated concentrations. […]

A further experiment deals with T2, recombinant CAC (WT) (Rattus norvegicus, UniProt P97521).
T2 construct: made in house; host or cells: E. coli C0214
T2 sequence (P97521 1-301): T1 sequence (P97521 1-301 C136A) with A136C
The experiment in a line: [3H]carnitine/carnitine antiport in proteoliposomes reconstituted with recombinant WT CAC. It is filed as biochemical. The method, then:
As previously described, the pMW7-WTratCAC recombinant plasmid was used for over-expressing the rat CAC [22]. The overlap extension method was used to introduce the mutations; in the main time, NdeI and HindIII restriction sites were also added using appropriate primers. The PCR products were purified by the QIAEX II Gel Extraction Kit (QIAGEN) and digested with NdeI and HindIII and then ligated into the pMW7. All mutations were verified by DNA sequencing. The resulting plasmid constructs were transformed into E. coli C0214. Overexpression, inclusion body fraction preparation, and purification of the CAC proteins were performed as previously described.
As previously described, recombinant CAC (WT and mutants) and ORC1 proteins were used for proteoliposome formation. For experiments with native CAC, ORC1, or ANT proteins, rat liver mitochondria, or HeLa cell mitochondria, the latter for the CAC alone, were first purified using the standard procedure of cell disruption and differential centrifugation. Then proteins were extracted using 3% Triton X-100 and reconstituted as described for the recombinant proteins. The concentration of intraliposomal carnitine and ornithine was 15 mM and 30 mM, respectively, in all samples.
To test the transport activity of the CAC, 550 μL of proteoliposomes was passed through a Sephadex G-75 column to remove the external substrate. Six hundred μL of the turbid eluate was collected, divided into samples of 100 μL each, and used for transport measurement by the inhibitor-stop method. Transport was started by adding 0.1 mM [^3H]carnitine ([^3H]ornitine or [^3H]ATP) to proteoliposome samples and stopped with 1.5 mM NEM (N-ethylmaleimide) at the indicated time interval. In the control samples, NEM was added with the labeled substrate at time zero. Transport rates were measured in 10 min, i.e., within the initial linear range of the time course, at 25 °C. After terminating the transport reaction, the external substrate was removed by chromatography on the Sephadex G-75 column, and the intraliposomal radioactivity was measured. The experimental values were corrected by subtracting the controls.
Figure 1 Effect of itaconate on the native and recombinant mitochondrial carnitine/acylcarnitine (CAC). Dose–response analysis for itaconate inhibition was carried out using proteoliposomes reconstituted with native (○) or recombinant (●) CAC carriers. After 10 min of itaconate incubation, transport activity was started by adding 0.1 mM [^3H]carnitine and stopped after 10 min as described in Section 2. Percent of residual activity with respect to the control, without itaconate treatment, was reported. The values are the means ± SD from three independent experiments.
Figure 2 Effect of different pH on the inhibition of CAC protein by itaconate. (a) Proteoliposomes reconstituted with the recombinant CAC were incubated at various pHs (range pH 6.5–8.5) for 10 min with 10 mM itaconate. (b) Dose–response analysis of inhibition by itaconate of the recombinant CAC at pH 6.5. was performed. Proteoliposomes were incubated for 10 min at pH 6.5 with itaconate at the indicated concentrations. In both (a,b), the transport activity was measured for 10 min by adding to proteoliposomes 0.1 mM [^3H]carnitine.

For `C=C(CC(=O)O)C(=O)O` [itaconate], the IC50 at CAC C136A mutant stood at 15 ± 2.1 mM; at recombinant CAC (WT) (recombinant CAC, 10 min incubation, 0.1 mM [3H]carnitine, pH 7.0, read-out: IC50 for itaconate inhibition of transport), 8.4 ± 2.9 mM; at recombinant CAC (WT) (recombinant WT CAC, pH 6.5, 10 min incubation, read-out: IC50 for inhibition of transport at pH 6.5) it was 3.8 ± 1 mM. In addition, on recombinant CAC (WT) (10 mM itaconate pre-incubation 10 min, 25 mM DTE, transport 30 min), the “reversal of inhibition by the reducing agent DTE” value is “not able to reverse the inhibition”. Further, the inhibition at 10000 µM at recombinant CAC (WT) (10 mM itaconate, 10 min, pH 6.5, read-out: inhibition of transport) was roughly 80%; on recombinant CAC (WT) (10 mM itaconate, pH 7.0, 10 min, without carnitine, unreacted compound removed by G-75, read-out: inhibition compared to the control), roughly 55%. In addition, the inhibition of transport result at recombinant CAC (WT) (10 mM itaconate, 10 min, pH 8.0 and pH 8.5) was “Virtually no inhibition”. The type of inhibition result on recombinant CAC (WT) (WT, double reciprocal plot) is given as “non-competitive inhibition”. Further, the Ki at recombinant CAC (WT) (pH 7.0, 10 mM itaconate, Lineweaver-Burk plot) was 14 ± 2.6 mM.
